Results as given in patent US20070049564A1 (Wyeth, priority 2005, published 2007).
In brackets after ≈: the same amount, converted by molar mass. Like-named read-outs stand apart in the source and are kept apart here.

Tests used:
E. coli GC 2231 = experiment: MIC, broth microdilution; settings: Escherichia coli
Procedure: Antimicrobial susceptibility testing. The in vitro activities of the antibiotics are determined by the broth microdilution method as recommended by the National Committee for Clinical Laboratory Standards (NCCLS) (1). Mueller-Hinton II broth (MHBII)(BBL Cockeysville, Md.) is the medium employed in the testing procedures. Microtiter plates containing serial dilutions of each antimicrobial agent are inoculated with each organism to yield the appropriate density (10^5 CFU/ml) in a 100 μl final volume. The plates are incubated for 18-22 hours at 35° C. in ambient air.
Representative compounds were first incubated in mouse serum for an hour prior to the in vitro testing against a panel of selected gram-positive and gram-negative bacteria strains. All compounds were also pre-incubated in water for an hour prior to testing as control.

E. coli GC 2235 = experiment: MIC, broth microdilution; settings: Escherichia coli
E. coli GC 2233 = experiment: MIC, broth microdilution; settings: Escherichia coli
E. coli GC 2270 = experiment: MIC, broth microdilution; settings: Escherichia coli
E. coli GC 4560 = experiment: MIC, broth microdilution; settings: Escherichia coli
E. coli GC 6465 = experiment: MIC, broth microdilution; settings: Escherichia coli
E. coli GC 1073 = experiment: MIC, broth microdilution; settings: Escherichia coli
S. typhimurium GC 2172 = experiment: MIC, broth microdilution; settings: Salmonella enterica, TYPHIMURIUM
S. aureus GC 6466 = experiment: MIC, broth microdilution; settings: Staphylococcus aureus
S. aureus GC 6467 = experiment: MIC, broth microdilution; settings: Staphylococcus aureus
S. aureus GC 1079 = experiment: MIC, broth microdilution; settings: Staphylococcus aureus
S. aureus GC 4536 = experiment: MIC, broth microdilution; settings: Staphylococcus aureus
S. aureus GC 2216 = experiment: MIC, broth microdilution; settings: Staphylococcus aureus
Procedure: Antimicrobial susceptibility testing. The in vitro activities of the antibiotics are determined by the broth microdilution method as recommended by the National Committee for Clinical Laboratory Standards (NCCLS) (1). Mueller-Hinton II broth (MHBII)(BBL Cockeysville, Md.) is the medium employed in the testing procedures. Microtiter plates containing serial dilutions of each antimicrobial agent are inoculated with each organism to yield the appropriate density (10^5 CFU/ml) in a 100 μl final volume. The plates are incubated for 18-22 hours at 35° C. in ambient air. […] Standard Pharmacological Test Procedures
Presented in Tables I-XIII are representative compounds of Formula I which were evaluated against a panel of 40 selected gram-positive and gram-negative bacteria strains by pre-incubation in water, mouse serum or human serum. Representative compounds were first incubated in mouse serum for an hour prior to the in vitro testing against a panel of selected gram-positive and gram-negative bacteria strains. All compounds were also pre-incubated in water for an hour prior to testing as control. Representative compounds of Formula I were incubated in human serum prior to MIC determination.

S. aureus GC 6469 = experiment: MIC, broth microdilution; settings: Staphylococcus aureus
E. faecalis GC 2242 = experiment: MIC, broth microdilution; settings: Enterococcus faecalis
E. faecium GC 4556 = experiment: MIC, broth microdilution; settings: Enterococcus faecium
E. faecium GC 2243 = experiment: MIC, broth microdilution; settings: Enterococcus faecium
c. albicans GC 3066 = experiment: MIC, broth microdilution
E. coli = experiment: Range of MIC for E. coli strains; settings: Escherichia coli
Staph. = experiment: Range of MIC for Staph. strains, including MRSA; settings: Staphylococcus aureus

CCC(C)(C)C(=O)OCOC(=O)N(CC(=O)Nc1cc(N(C)C)c2c(c1O)C(=O)C1=C(O)[C@]3(O)C(=O)C(C(N)=O)=C(O)[C@@H](N(C)C)[C@@H]3C[C@@H]1C2)C(C)(C)C [Example 44, ({[(2-{[(5aR,6aS,7S,10aS)-9-(aminocarbonyl)-4,7-bis(dimethylamino)-1,8,10a,11-tetrahydroxy-10,12-dioxo-5,5a,6,6a,7,10,10a,12-octahydrotetracen-2-yl]amino}-2-oxoethyl)(tert-butyl)amino]carbonyl}oxy)methyl 2,2-dimethylbutanoate]
MIC (E. coli GC 2231; GC2231, read-out: MINIMAL INHIBITORY CONCENTRATION MIC, pre-incubated in Human Serum): > 64 µg/mL
MIC (E. coli GC 2231; GC2231, read-out: MINIMAL INHIBITORY CONCENTRATION MIC, pre-incubated in Mouse Serum): 2 µg/mL (≈ 2.64 µM)
MIC (E. coli GC 2231; GC2231, read-out: MINIMAL INHIBITORY CONCENTRATION MIC, pre-incubated in Water): > 64 µg/mL
MIC (E. coli GC 2235; GC2235, read-out: MINIMAL INHIBITORY CONCENTRATION MIC, pre-incubated in Human Serum): > 64 µg/mL
MIC (E. coli GC 2235; GC2235, read-out: MINIMAL INHIBITORY CONCENTRATION MIC, pre-incubated in Mouse Serum): 2 µg/mL (≈ 2.64 µM)
MIC (E. coli GC 2235; GC2235, read-out: MINIMAL INHIBITORY CONCENTRATION MIC, pre-incubated in Water): > 64 µg/mL
MIC (E. coli GC 2233; GC2233, read-out: MINIMAL INHIBITORY CONCENTRATION MIC, pre-incubated in Human Serum): > 64 µg/mL
MIC (E. coli GC 2233; GC2233, read-out: MINIMAL INHIBITORY CONCENTRATION MIC, pre-incubated in Mouse Serum): 2 µg/mL (≈ 2.64 µM)
MIC (E. coli GC 2233; GC2233, read-out: MINIMAL INHIBITORY CONCENTRATION MIC, pre-incubated in Water): > 64 µg/mL
MIC (E. coli GC 2270; GC2270, read-out: MINIMAL INHIBITORY CONCENTRATION MIC, pre-incubated in Human Serum): > 64 µg/mL
MIC (E. coli GC 2270; GC2270, read-out: MINIMAL INHIBITORY CONCENTRATION MIC, pre-incubated in Mouse Serum): 2 µg/mL (≈ 2.64 µM)
MIC (E. coli GC 2270; GC2270, read-out: MINIMAL INHIBITORY CONCENTRATION MIC, pre-incubated in Water): > 64 µg/mL
MIC (E. coli GC 4560; GC4560, read-out: MINIMAL INHIBITORY CONCENTRATION MIC, pre-incubated in Human Serum): 4 µg/mL (≈ 5.28 µM)
MIC (E. coli GC 4560; GC4560, read-out: MINIMAL INHIBITORY CONCENTRATION MIC, pre-incubated in Mouse Serum): 2 µg/mL (≈ 2.64 µM)
MIC (E. coli GC 4560; GC4560, read-out: MINIMAL INHIBITORY CONCENTRATION MIC, pre-incubated in Water): 4 µg/mL (≈ 5.28 µM)
MIC (E. coli GC 6465; GC6465, read-out: MINIMAL INHIBITORY CONCENTRATION MIC, pre-incubated in Human Serum): > 64 µg/mL
MIC (E. coli GC 6465; GC6465, read-out: MINIMAL INHIBITORY CONCENTRATION MIC, pre-incubated in Mouse Serum): 8 µg/mL (≈ 10.6 µM)
MIC (E. coli GC 6465; GC6465, read-out: MINIMAL INHIBITORY CONCENTRATION MIC, pre-incubated in Water): > 64 µg/mL
MIC (E. coli GC 1073; GC1073, read-out: MINIMAL INHIBITORY CONCENTRATION MIC, pre-incubated in Human Serum): > 64 µg/mL
MIC (E. coli GC 1073; GC1073, read-out: MINIMAL INHIBITORY CONCENTRATION MIC, pre-incubated in Mouse Serum): 4 µg/mL (≈ 5.28 µM)
MIC (E. coli GC 1073; GC1073, read-out: MINIMAL INHIBITORY CONCENTRATION MIC, pre-incubated in Water): > 64 µg/mL
MIC (S. typhimurium GC 2172; read-out: MINIMAL INHIBITORY CONCENTRATION MIC, pre-incubated in Human Serum): > 64 µg/mL
MIC (S. typhimurium GC 2172; read-out: MINIMAL INHIBITORY CONCENTRATION MIC, pre-incubated in Mouse Serum): 8 µg/mL (≈ 10.6 µM)
MIC (S. typhimurium GC 2172; read-out: MINIMAL INHIBITORY CONCENTRATION MIC, pre-incubated in Water): > 64 µg/mL
MIC (S. aureus GC 6466; GC6466, read-out: MINIMAL INHIBITORY CONCENTRATION MIC, pre-incubated in Human Serum): 2 µg/mL (≈ 2.64 µM)
MIC (S. aureus GC 6466; GC6466, read-out: MINIMAL INHIBITORY CONCENTRATION MIC, pre-incubated in Mouse Serum): 2 µg/mL (≈ 2.64 µM)
MIC (S. aureus GC 6466; GC6466, read-out: MINIMAL INHIBITORY CONCENTRATION MIC, pre-incubated in Water): 2 µg/mL (≈ 2.64 µM)
MIC (S. aureus GC 6467; GC6467, read-out: MINIMAL INHIBITORY CONCENTRATION MIC, pre-incubated in Human Serum): 2 µg/mL (≈ 2.64 µM)
MIC (S. aureus GC 6467; GC6467, read-out: MINIMAL INHIBITORY CONCENTRATION MIC, pre-incubated in Mouse Serum): 2 µg/mL (≈ 2.64 µM)
MIC (S. aureus GC 6467; GC6467, read-out: MINIMAL INHIBITORY CONCENTRATION MIC, pre-incubated in Water): 4 µg/mL (≈ 5.28 µM)
MIC (S. aureus GC 1079; GC1079, read-out: MINIMAL INHIBITORY CONCENTRATION MIC, pre-incubated in Human Serum): 2 µg/mL (≈ 2.64 µM)
MIC (S. aureus GC 1079; GC1079, read-out: MINIMAL INHIBITORY CONCENTRATION MIC, pre-incubated in Mouse Serum): 2 µg/mL (≈ 2.64 µM)
MIC (S. aureus GC 1079; GC1079, read-out: MINIMAL INHIBITORY CONCENTRATION MIC, pre-incubated in Water): 4 µg/mL (≈ 5.28 µM)
MIC (S. aureus GC 4536; GC4536, read-out: MINIMAL INHIBITORY CONCENTRATION MIC, pre-incubated in Human Serum): 2 µg/mL (≈ 2.64 µM)
MIC (S. aureus GC 4536; GC4536, read-out: MINIMAL INHIBITORY CONCENTRATION MIC, pre-incubated in Mouse Serum): 2 µg/mL (≈ 2.64 µM)
MIC (S. aureus GC 4536; GC4536, read-out: MINIMAL INHIBITORY CONCENTRATION MIC, pre-incubated in Water): 4 µg/mL (≈ 5.28 µM)
MIC (S. aureus GC 2216; GC2216, read-out: MINIMAL INHIBITORY CONCENTRATION MIC, pre-incubated in Human Serum): 2 µg/mL (≈ 2.64 µM)
MIC (S. aureus GC 2216; GC2216, read-out: MINIMAL INHIBITORY CONCENTRATION MIC, pre-incubated in Mouse Serum): 2 µg/mL (≈ 2.64 µM)
MIC (S. aureus GC 2216; GC2216, read-out: MINIMAL INHIBITORY CONCENTRATION MIC, pre-incubated in Water): 2 µg/mL (≈ 2.64 µM)
MIC (S. aureus GC 6469; GC6469, read-out: MINIMAL INHIBITORY CONCENTRATION MIC, pre-incubated in Human Serum): 2 µg/mL (≈ 2.64 µM)
MIC (S. aureus GC 6469; GC6469, read-out: MINIMAL INHIBITORY CONCENTRATION MIC, pre-incubated in Mouse Serum): 2 µg/mL (≈ 2.64 µM)
MIC (S. aureus GC 6469; GC6469, read-out: MINIMAL INHIBITORY CONCENTRATION MIC, pre-incubated in Water): 4 µg/mL (≈ 5.28 µM)
MIC (E. faecalis GC 2242; GC2242, read-out: MINIMAL INHIBITORY CONCENTRATION MIC, pre-incubated in Human Serum): 4 µg/mL (≈ 5.28 µM)
MIC (E. faecalis GC 2242; GC2242, read-out: MINIMAL INHIBITORY CONCENTRATION MIC, pre-incubated in Mouse Serum): 2 µg/mL (≈ 2.64 µM)
MIC (E. faecalis GC 2242; GC2242, read-out: MINIMAL INHIBITORY CONCENTRATION MIC, pre-incubated in Water): 4 µg/mL (≈ 5.28 µM)
MIC (E. faecium GC 4556; GC4556, read-out: MINIMAL INHIBITORY CONCENTRATION MIC, pre-incubated in Human Serum): 4 µg/mL (≈ 5.28 µM)
MIC (E. faecium GC 4556; GC4556, read-out: MINIMAL INHIBITORY CONCENTRATION MIC, pre-incubated in Mouse Serum): 2 µg/mL (≈ 2.64 µM)
MIC (E. faecium GC 4556; GC4556, read-out: MINIMAL INHIBITORY CONCENTRATION MIC, pre-incubated in Water): 4 µg/mL (≈ 5.28 µM)
MIC (E. faecium GC 2243; GC2243, read-out: MINIMAL INHIBITORY CONCENTRATION MIC, pre-incubated in Human Serum): 4 µg/mL (≈ 5.28 µM)
MIC (E. faecium GC 2243; GC2243, read-out: MINIMAL INHIBITORY CONCENTRATION MIC, pre-incubated in Mouse Serum): 2 µg/mL (≈ 2.64 µM)
MIC (E. faecium GC 2243; GC2243, read-out: MINIMAL INHIBITORY CONCENTRATION MIC, pre-incubated in Water): 4 µg/mL (≈ 5.28 µM)
MIC (c. albicans GC 3066; Candida albicans, GC3066, read-out: MINIMAL INHIBITORY CONCENTRATION MIC): > 64 µg/mL
MINIMAL INHIBITORY CONCENTRATION MIC (c. albicans GC 3066; pre-incubated in Human Serum): >64 UG/ML
MINIMAL INHIBITORY CONCENTRATION MIC (c. albicans GC 3066; pre-incubated in Mouse Serum): >64 UG/ML
MIC (E. coli; 20 h, read-out: Range of MIC, E. coli (Mouse Serum)): 2 to 8 µg/mL (≈ 2.64 to 10.6 µM)
MIC (E. coli; read-out: Minimum inhibitory concentration (MIC), E. coli (Human Serum)): > 64 µg/mL
MIC (E. coli; read-out: Minimum inhibitory concentration (MIC), E. coli (water)): > 64 µg/mL
MIC (E. coli; read-out: Range of MIC, E. coli (Water)): > 64 µg/mL
MIC (Staph.; MRSA, read-out: Range of MIC, Staph (Mouse Serum)): 2 µg/mL (≈ 2.64 µM)
MIC (Staph.; MRSA, read-out: Range of MIC, Staph (Water)): 2 to 4 µg/mL (≈ 2.64 to 5.28 µM)
MIC (Staph.; read-out: Minimum inhibitory concentration (MIC), Staph (Human Serum)): 2 to 4 µg/mL (≈ 2.64 to 5.28 µM)
MIC (Staph.; read-out: Minimum inhibitory concentration (MIC), Staph (Water)): 2 to 4 µg/mL (≈ 2.64 to 5.28 µM)
